Test results as given in patent US20130030049A1, “METHODS OF TREATING DERMATOLOGICAL DISORDERS OR CONDITIONS” (Dermira (Canada), Inc., priority 2006, published 2013).
Where two headings read alike, the source gives them in different places. One block for each molecule: values may come before it.

Experiments:
[1] = tested on: SZ95 sebocytes; assay: Inhibition of lipid synthesis in AA-stimulated SZ95 sebocytes (Nile Red staining); format: cell-based, human
Method: (§1) The immortalized human sebocyte cell line, SZ95, was maintained in culture as described in Zouboulis, C. C. et al., J. Invest. Dermatol. (1999), Vol. 113, pp. 1011-1020. Lipid synthesis was stimulated by treating SZ95 cells with arachidonic acid (AA). For measurement of lipid production and lipid inhibition studies, test compounds were dissolved in dimethylsulfoxide (DMSO) and added at the desired concentration in 96-well microtiter plates. The cells were then cultured for up to 72 hours before the plates were washed 3 times with PBS and a final volume of 200 μL PBS/well was added. To stain cell neutral lipids, 5 μL of Nile Red solution (0.2 mg/mL dissolved in DMSO) was added to each well and incubated for a minimum of 60 minutes. Plate fluorescence was then quantified using a fluorometric plate reader (excitation wavelength: 490 nm; emission wavelength: 590 nm). Inhibition of lipid levels by the test compound was expressed as the % reduction of the fluorescence of AA-stimulated cells in the presence of the test compound relative to the values obtained for the unstimulated control cells. Cell viability was measured by utilizing the conversion of a tetrazolium reagent (MTS) to a colored-formazan product by live cells. For these assays, the test compound was dissolved in dimethylsulfoxide (DMSO) and added at the desired concentration to cells seeded into 96-well plates. The cells were cultured for 48 hours in the presence of the test compound before the plates were washed 3 times with PBS. A final volume of 100 μL of culture medium per well was added. Twenty μL of MTS solution (0.2 mg/mL in sterile PBS) was added to each well and incubated for a minimum of 60 minutes until the desired optical density was reached. The color development of the wells was measured using a plate reader at an absorbance of […]. Effect on cell viability by the test compound was expressed as the % reduction of the absorbance for AA-stimulated cells in the presence of the test compound relative to the values obtained for the untreated control cells.

[2] = tested on: TNF-α; assay: Supernatant TNF-α level of activated PBMC (flow cytometry-based); format: cell-based; conditions: Homo sapiens, 48 h, PBMC stimulated with IFN-γ plus LPS, 10% FBS, read-out: TNF-α supernatant level IC50 (estimated)
Method: (§2) As described herein, the inhibitory effect of TOFA on fatty acid synthesis is well known. However, the potential influence of TOFA on cellular production of inflammatory mediators or immune cell proliferation is unreported. To address this question, PBMC were isolated from different donors by density gradient centrifugation. Different amounts of TOFA were added to PBMC cultures in the presence of two different stimuli sets. One activating stimulus was phytohemagglutinin (PHA), a plant-derived mitogen that stimulates proliferation and cytokine synthesis by T lymphocytes. These cell preparations were also activated using a combination of interferon-γ (IFN-γ) and lipopolysaccharide (LPS) to stimulate cytokine production by the monocyte fraction within PBMC preparations. Following a 48 hour culture period, cell supernatants were obtained for simultaneous determination of cytokine levels using a flow cytometry-based quantification method. […] Cell viability was assessed using a colorimetric assay based on the conversion of 3-(4,5-dimethylthiazol-2-yl)-5-(3-carboxymethoxyphenyl)-2-(4-sulfophenyl)-2H-tetrazolium, inner salt (MTS) into a soluble formazan product by mitochondrial dehydrogenase of viable cells. Cell proliferation was determined by adding ^3H-thymidine to the cultures and determining its level of incorporation into DNA using scintillation counting.

[3] = tested on: IL-1β; assay: Supernatant IL-1β level of activated PBMC (flow cytometry-based); format: cell-based; conditions: Homo sapiens; PBMC stimulated with IFN-γ plus LPS, 10% FBS, 48 hours; read-out: IL-1β supernatant level IC50 (estimated)
Method: as §2

[4] = tested on: PBMC; assay: Viability of activated PBMC (MTS assay); format: cell-based, human
Method: as §2

[5] = tested on: IL-8; assay: Supernatant IL-8 level of activated PBMC (flow cytometry-based); format: cell-based; conditions: Homo sapiens; PBMC stimulated with IFN-γ plus LPS, 10% FBS, 48 hours; read-out: IL-8 supernatant level IC50 (estimated)
Method: as §2

[6] = tested on: SZ95 sebocytes; assay: SZ95 sebocyte viability (MTS assay); format: cell-based, human; conditions: AA-stimulated SZ95 cells, FIG. 2B
Method: as §1, with “To stain cell neutral lipids, 5 μL of Nile Red solution (0.2 mg/mL dissolved in DMSO) was added to each well and incubated for a minimum of 60 minutes.” left out, “For these assays, the test compound was dissolved in dimethylsulfoxide (DMSO) and added at the desired concentration to cells seeded into 96-well plates. The cells were cultured for 48 hours in the presence of the test compound before the plates were washed 3 times with PBS. A final volume of 100 μL of culture medium per well was added. Twenty μL of MTS solution (0.2 mg/mL in sterile PBS) was added to each well and incubated for a minimum of 60 minutes until the desired optical density was reached.” left out

[7] = tested on: IL-6; assay: Supernatant IL-6 level of activated PBMC (flow cytometry-based); format: cell-based; conditions: Homo sapiens; PBMC stimulated with IFN-γ plus LPS, 10% FBS, 48 hours; read-out: IL-6 supernatant level IC50 (estimated)
Method: as §2

[8] = tested on: LNCaP cells; assay: Lipid accumulation in DHT-stimulated LNCaP cells (Nile Red flow cytometry, Oil Red O); format: cell-based, human
Method: The human prostate LNCaP adenocarcinoma cell line was obtained from American Type Culture Collection. Cells were maintained in RPMI 1640 medium containing 10% fetal calf serum (FCS), 4 mM Glutamax, 1 mM sodium pyruvate, 1 mM HEPES, penicillin (100 U/mL) and streptomycin (100 μg/mL). For experiments, approximately 10,000 cells/well were plated in 6-well tissue culture plates in RPMI 1640 10% FBS for 72 hours. To minimize potential serum androgen effects, medium containing 5% charcoal/dextran-stripped FCS was added for 72 hours. Lipid synthesis was then stimulated by addition of the androgen dihydrotestosterone (DHT) at 50 nM. TOFA was solubilized in DMSO and added at various concentrations in RPMI 1640 containing 5% charcoal/dextran-treated. Cells were incubated in the presence of these factors for 96 hours at 37° C. Lipid accumulation was subsequently quantified by Nile Red staining and flow cytometric analysis. The flow cytometer laser excitation was set at 488 nm and Nile Red fluorescence collected through a 585 nm band pass filter. A total of 10,000 events were collected per sample. […] Cell Nile Red fluorescence was also visualized through a fluorescence microscope.
Cellular lipid expression was also determined using Oil Red O staining. […] Lipid accumulation was visualized by fluorescence microscopy.

[9] = tested on: 3T3-L1 cells; assay: 3T3-L1 adipocyte differentiation and lipid accumulation (Oil Red O); format: cell-based; conditions: mouse 3T3-L1 adipocytes, FIGS. 8-10
Method: Mouse 3T3-L1 preadipocytes (American Type Culture Collection) were passaged and maintained in Dulbecco's modified Eagles Medium (DMEM) supplemented with 10% fetal calf serum (FCS), 1 mM sodium pyruvate, penicillin (100 U/ml)/streptomycin (100 μg/ml) and 4 mM Glutamax (Gibco/Life Technologies). To initiate adipocyte differentiation, 3T3-L1 cells were plated at confluency into culture plates or dishes and grown in supplemented DMEM for two days post-confluency. Initiation medium consisted of DMEM with 0.5 mM 3-isobutyl-1-methylxanthine, 1 μM dexamethasone and human insulin at 10 μg/ml. Progression medium contained insulin (10 μg/ml) which replaced the initiation medium after 48-72 hours. Cellular lipid was imaged by Oil Red O staining as described in Example 2 for LNCaP cells.

[10] = oral, moderate to severe acne patients, at 12 weeks; cited from earlier work

- IC50 ([1]; SZ95 cells, short term cultures, read-out: IC50 against lipid synthesis): ~40 µM
SMILES: CC1=C(/C=C/C(C)=C/C=C/C(C)=C\C(=O)O)C(C)(C)CCC1 [13-cis retinoic acid, 13-cis-retinoic acid, reference compound]

- IC50 [2]: > 90 µM
- IC50 [3]: > 90 µM
- IC50 ([1]; Homo sapiens, AA-stimulated SZ95 cells, FIG. 2A, read-out: estimated IC50 upon lipid synthesis (nile red fluorescence intensity)): ~3 µM
- IC50 [5]: > 90 µM
- IC50 [7]: > 90 µM
SMILES: CCCCCCCCCCCCCCOc1ccc(C(=O)O)o1 [TOFA, 5-(tetradecyloxy)-2-furancarboxylic acid]
- inhibition of lipid synthesis observed by fluorescence microscopy ([1]; AA-stimulated SZ95 cells, FIG. 1): dose-dependent inhibition of lipid synthesis
- IC50 ([4]; Homo sapiens, PBMC stimulated with PHA (2 μg/mL), 10% FBS, 48 hours, one row per experiment (donor)): > 90 µM
- effect on the viability of PBMC ([4]; PBMC stimulated with PHA or IFN-γ plus LPS): no effect on the viability
- TOFA concentration with viability loss [6]: greater than 50 μM
- lipid levels by Oil Red O staining and fluorescence microscopy ([8]; FIG. 11): dose dependent reduction in lipid levels
- reduction of lipid levels (flow cytometry/fluorescence) ([8]; TOFA at 25 μM, FIG. 12): > 50%
- effect on cellular differentiation and lipid accumulation [9]: dose-dependent effects on cellular differentiation and lipid accumulation

SMILES: CC(c1cc2ccccc2s1)N(O)C(N)=O (stereo not shown) [Zileuton]
- reduction in inflammatory lesions [10]: 71%
- reduction of sebum lipids [10]: 65%

SMILES: CCCCC/C=C\C/C=C\C/C=C\C/C=C\CCCC(=O)O [arachidonic acid (AA), arachidonic acid, reference compound]
- increase of SZ95 sebocyte lipid levels ([1]; 96-well microtiter plate format): approximately 5 fold
